Test results as given in patent US20260374766A1, “METHODS FOR TREATING CANCER” (Antares Therapeutics, Inc., priority 2022, published 2026).

Tests used:
H1299 p53 Y220C = assay: Cell Proliferation Assay (CellTiter-Glo, CTG), H1299 p53 Y220C (NClH1299-inducible p53 Y220C); type: cell-based; conditions: Homo sapiens, NCI-H1299, 120 h, CellTiter-Glo, H1299 p53 Y220C, 5 days
Method in brief: (§1)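 NClH1299 lines stably transduced with Tet-inducible p53 Y220C or R273H, plus NUGC3, were treated with compound for 5 days at 250-500 cells/well. IC50 derived from CellTiter-Glo luminescent signal after 10 min room-temperature incubation.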

NUGC3 p53 Y220C = assay: Cell Proliferation Assay (CellTiter-Glo, CTG), NUGC3 p53 Y220C; type: cell-based; conditions: Homo sapiens, NUGC-3, 120 h, CellTiter-Glo, NUGC3 p53 Y220C, 5 days
Method in brief: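 Tet-One inducible p53 Y220C or R273H constructs were stably introduced into NCI-H1299 by lentiviral transduction; NUGC3 was used as is. Cells (250-500 per well) were exposed to compound for 5 days, then CellTiter-Glo was added for 10 min at room temperature and IC50 was calculated from luminescence.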

[1] = target: T1, p53 Y220C mutant protein (amino acid residues 94-293) (Homo sapiens, UniProt P04637, Y220C); assay: Surface Plasmon Resonance (SPR) assay, Kd_kinetic; type: binding; conditions: SPR, kinetic KD, p53 Y220C; read-out: SPR P53 Y220C KD kinetic
T1 construct: p53 Y220C mutant protein (amino acid residues 94-293)
Method in brief: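 Biacore 8K SPR; 16 or 20 °C; Tris 50 mM pH 7.5, NaCl 100 mM, DTT 1 mM, Brij35 0.01%, Tween-20 0.05%, DMSO 1%. Kd_kinetic by 1:1 fit.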

p53 Y220C = p53 Y220C (Homo sapiens, UniProt P04637, Y220C); assay: Luciferase Reporter Assay (Luc), p53 response element, NClH1299 cells with inducible p53 Y220C; type: cell-based; conditions: luciferase reporter, NClH1299 inducible p53 Y220C, 6 hour; for Emax: 10 uM tool compound as positive control; for AC50: read-out: Luc P53 Y220C AC50
Method in brief: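 Luciferase activity is measured directly after One-Glo addition and a 5-minute room-temperature shake. Before that, cells plated at 5,000 per well receive doxycycline at 0.5 ug/mL for 24 hours, followed by compound for 6 hours.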

[2] = target: T1, p53 Y220C mutant protein (amino acid residues 94-293); assay: Thermal Shift Assay (TSA), dTM; type: binding; conditions: thermal shift; for ΔTm at 10 µM: 10 uM compound, read-out: TSA P53 Y220C dTM (10 uM); for ΔTm at 100 µM: 100 uM compound, read-out: TSA P53 Y220C dTM (100 uM)
Method in brief: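 First, the mutant DNA-binding domain (5 μM) was preincubated 3 hours at 20 °C with compound at 10 μM or 100 μM. Next, the sample was heated from 30 °C to 50 °C at 0.03 °C/second in the presence of Sypro Orange. Finally, TM was obtained from a two-state Boltzmann fit.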

H1299 p53 R273H = assay: Cell Proliferation Assay (CellTiter-Glo, CTG), H1299 p53 R273H (NClH1299-inducible p53 R273H); type: cell-based; conditions: Homo sapiens, NCI-H1299, 120 h, CellTiter-Glo, H1299 p53 R273H, 5 days
Method in brief: as §1

Row | SMILES | IC50 (H1299 p53 Y220C) [µM] | IC50 (NUGC3 p53 Y220C) [µM] | Kd [1] [µM] | Emax (p53 Y220C) [%] | AC50 (p53 Y220C) [µM] | ΔTm at 10 µM [2] [°C] | ΔTm at 100 µM [2] [°C] | IC50 (H1299 p53 R273H) [µM]
1 | CNC(=O)c1ccc(NCC#Cc2nc3c(N[C@@H]4CCN(C)C[C@@H]4F)cc(F)cn3c2SC(F)(F)F)c(OC)c1 [Example 180] | < 0.75 | 0.75 to 1.5 | < 0.01 | 80 to 90 | < 0.75 | ≥ 10 | ≥ 10 | 5 to 8
2 | CNC(=O)c1ccc(NCC#Cc2nc3c(NCC4(F)CN(C)C4)cccn3c2SC(F)(F)F)c(OC)c1 [Example 181] | 0.75 to 1.5 | 1.5 to 3 | 0.01 to 0.1 | 80 to 90 | 1.5 to 3 | 5 to 10 | 5 to 10 | 5 to 8
3 | CNC(=O)c1ccc(NCC#Cc2nc3c(N[C@@H]4CCC(=O)NC4)cccn3c2SC(F)(F)F)c(OC)c1 [Example 182] | 1.5 to 3 | 1.5 to 3 | 0.01 to 0.1 | 80 to 90 | 1.5 to 3 | 5 to 10 | 5 to 10 | ≥ 10
4 | CNC(=O)c1ccc(NCC#Cc2nc3c(N[C@H]4CCC(=O)NC4)cccn3c2SC(F)(F)F)c(OC)c1 [Example 183] | 1.5 to 3 | 0.75 to 1.5 | 0.01 to 0.1 | 80 to 90 | 1.5 to 3 | 5 to 10 | 5 to 10 | ≥ 10
5 | CNC(=O)c1ccc(NCC#Cc2nc3c(N[C@H]4Cc5cncn5C4)cccn3c2SC(F)(F)F)c(OC)c1 [Example 184] | 1.5 to 3 | 0.75 to 1.5 | < 0.01 | 70 to 80 | 1.5 to 3 | 5 to 10 | ≥ 10 | 5 to 8
6 | CNC(=O)c1cc(NCC#Cc2cc3c(N[C@@H]4CCN(C)C[C@@H]4F)nccn3c2SC(F)(F)F)c2nccn2c1 [Example 186, 8-{[3-(1-{[(3S,4R)-3-fluoro-1-methylpiperidin-4-yl]amino}-6-[(trifluoromethyl)sulfanyl]pyrrolo[1,2-a]pyrazin-7-yl)prop-2-yn-1-yl]amino}-N-methylimidazo[1,2-a]pyridine-6-carboxamide] | < 0.75 | < 0.75 | < 0.01 | > 90 | < 0.75 | ≥ 10 | – | ≥ 10
7 | CNC(=O)c1ccc(NCC#Cc2nc3c(N[C@H]4CCC(=O)N(C)C4)cccn3c2SC(F)(F)F)c(OC)c1 [Example 187] | < 0.75 | < 0.75 | < 0.01 | 80 to 90 | < 0.75 | ≥ 10 | ≥ 10 | 5 to 8
8 | CNC(=O)c1ccc(NCC#Cc2nc3c(N[C@@H]4CCC(=O)N(C)C4)cccn3c2SC(F)(F)F)c(OC)c1 [Example 188] | 0.75 to 1.5 | 0.75 to 1.5 | 0.01 to 0.1 | 80 to 90 | 0.75 to 1.5 | 5 to 10 | ≥ 10 | ≥ 10
9 | CNC(=O)c1ccc(NCC#Cc2nc3c(N[C@H]4CCc5nncn5C4)cccn3c2SC(F)(F)F)c(OC)c1 [Example 191] | > 3 | > 3 | < 0.01 | < 70 | > 3 | 5 to 10 | ≥ 10 | ≥ 10
10 | CNC(=O)c1ccc(NCC#Cc2nc3c(N[C@@H]4CCc5nncn5C4)cccn3c2SC(F)(F)F)c(OC)c1 [Example 192] | > 3 | > 3 | < 0.01 | < 70 | > 3 | ≥ 10 | ≥ 10 | ≥ 10
11 | CNC(=O)c1ccc(OC)c(NCC#Cc2nc3c(N[C@@H]4CCNC[C@@H]4F)cccn3c2SC(F)F)n1 [Example 193] | < 0.75 | < 0.75 | 0.01 to 0.1 | 70 to 80 | < 0.75 | ≥ 10 | ≥ 10 | 8 to 10
12 | CNC(=O)c1ccc(OC)c(NCC#Cc2nn3c(N[C@@H]4CCN(C)C[C@@H]4F)cccc3c2SC(F)F)c1 [Example 194] | < 0.75 | < 0.75 | < 0.01 | > 90 | < 0.75 | ≥ 10 | 5 to 10 | 5 to 8
13 | CNC(=O)c1ccc(OC)c(NCC#Cc2nn3c(N[C@@H]4CCNC[C@@H]4F)cccc3c2SC(F)F)c1 [Example 195] | < 0.75 | < 0.75 | < 0.01 | 80 to 90 | < 0.75 | ≥ 10 | ≥ 10 | 5 to 8
14 | CNC(=O)c1ccc(NCC#Cc2cc3c(N[C@@H]4CCN(C)C[C@@H]4F)nccn3c2SC(F)F)c(OC)c1 [Example 196, 4-[(3-{6-[(difluoromethyl)sulfanyl]-1-{[(3S,4R)-3-fluoro-1-methylpiperidin-4-yl]amino}pyrrolo[1,2-a]pyrazin-7-yl}prop-2-yn-1-yl)amino]-3-methoxy-N-methylbenzamide; formic acid] | < 0.75 | < 0.75 | < 0.01 | > 90 | < 0.75 | ≥ 10 | ≥ 10 | ≥ 10
15 | CNC(=O)c1ccc(NCC#Cc2nc3c(NCC4(F)CNC4)cccn3c2SC(F)(F)F)c(OC)c1 [Example 197] | > 3 | > 3 | 0.01 to 0.1 | 80 to 90 | > 3 | 5 to 10 | ≥ 10 | ≥ 10
16 | CNC(=O)c1ccc(OC)c(NCC#Cc2nc3c(N[C@@H]4C[C@H]5CC[C@@H]([C@@H]4F)N5C)cccn3c2SC(F)(F)F)c1 [Example 199] | < 0.75 | < 0.75 | < 0.01 | 70 to 80 | < 0.75 | ≥ 10 | ≥ 10 | < 5
17 | CNC(=O)c1ccc(OC)c(NCC#Cc2nc3c(N[C@H]4C[C@@H]5CC[C@H]([C@H]4F)N5C)cccn3c2SC(F)(F)F)c1 [Example 200] | < 0.75 | < 0.75 | < 0.01 | 70 to 80 | < 0.75 | ≥ 10 | ≥ 10 | ≥ 10
